Source: article PMC11960843, “Exploration of the tunability of BRD4 degradation by DCAF16 trans-labelling covalent glues” (European journal of medicinal chemistry, 2024)

Key:
BRD4BD1 = BRD4BD1 (Homo sapiens, UniProt O60885); assay: BRD4 AlphaScreen competition assay (JQ1-biotin displacement), BRD4BD1; type: binding; settings: read-out: IC50 BRD4BD1
BRD4BD2 [1] = molecular target: T1, BRD4BD2 (Homo sapiens, UniProt O60885); assay: BRD4 AlphaScreen competition assay (JQ1-biotin displacement), BRD4BD2; type: binding; settings: read-out: IC50 BRD4BD2
[2] = molecular target: T2, BRD4BD2-DCAF16 ternary complex (Homo sapiens, UniProt O60885+Q9NXF7); assay: DDB1-DCAF16-BRD4BD2 TR-FRET ternary complex formation assay; type: biochemical; settings: for TR-FRETmax (520 nm/490 nm ratio): 6 h degrader incubation; for incubation time of saturation / maximum TR-FRET signal: measured at 1, 2, 4, 6 and 24 h
T2 construct: E3 ligase to bromodomain 2 (BRD4BD2); His6 (N); StrepII (N); Avi (N); made in house; host or cells: BRD4BD2: E. coli (pET100/D-TOPO)
Description: To determine the relationship between covalent warheads and DCAF16 recruitment to BRD4BD2, we used a time-resolved fluorescence energy transfer (TR-FRET) assay to measure induced BRD4BD2-DCAF16 ternary complex formation (Fig. 3A).
Furthermore, we wanted to determine the kinetics of the BRD4BD2-DCAF16 interaction given its covalent nature. […] Additionally, to understand the relationship between ternary complex formation kinetics and warhead reactivity we measured the depletion of the covalent analogs in the presence of glutathione using MS (Table S2). […] Titrations of compounds to induce the DCAF16-BRD4BD complex were carried out by mixing 100 nM biotinylated BRD4BD2, 500 nM BODIPY-FL labeled DDB1ΔB-DCAF16 variants, and 2 nM terbium-coupled streptavidin (Invitrogen) in an assay buffer containing 50 mM HEPES pH 8.0, 200 mM NaCl, 0.1% Pluronic F-68 solution (Sigma), 0.5% bovine serum albumin (BSA) (w/v) and 1 mM TCEP. […] The TR-FRET signal of each data point was extracted by calculating the 520/490 nm ratio.

glutathione = assay: GSH stability (glutathione reactivity) assay by LC-MS/MS; type: physicochemical; settings: PBS containing 5 mM reduced glutathione; PBS + 5 mM GSH; extrapolated from 240 min assay
Description: Furthermore, we wanted to determine the kinetics of the BRD4BD2-DCAF16 interaction given its covalent nature. […] Additionally, to understand the relationship between ternary complex formation kinetics and warhead reactivity we measured the depletion of the covalent analogs in the presence of glutathione using MS (Table S2). […].

[3] = as above; type: physicochemical; settings: phosphate buffered saline (PBS) without glutathione, extrapolated from 240 min assay
BRD4BD2 [4] = molecular target: T1, BRD4BD2; assay: BRD4BD2-eGFP and mCherry flow reporter degradation assay, wild type K562 cells; settings: for increase in degradation potency in comparison to GNE011: BRD4BD2 reporter, 16 h; for Dmax: K562, read-out: maximal degradation (Dmax/16h) of BRD4BD2, K562 cells, 16 h incubation; for DC50: read-out: DC50 of BRD4BD2 degradation
Description: This assay involves the co-expression of mCherry with BRD4BD1/2 fused to an enhanced green fluorescent protein (eGFP) tag, and the subsequent fluorescence measurement of BRD4BD1/2-eGFP normalized to mCherry as a readout for BRD4BD1/2 degradation. It allows for a quantitative, rapid, and facile screening of several MGDs, in a dose-and time-dependent manner. […] Thus, the BRD4BD2 stability system was used to test all subsequent GNE011 analogs in wild type and DCAF16−/− cells.
One day after infection, reporter cells were selected with puromycin at a concentration of 2 μg/mL.
(§5) K562 cells stably expressing degradation reporter were dosed with DMSO or degraders at various times and concentrations using D300e Digital Dispenser (HP). The fluorescent signal was quantified by flow cytometry (LSRFortessa flow cytometer, BD Biosciences) and analyzed using FlowJo (flow cytometry analysis software, BD Biosciences). The geometric mean of the eGFP and mCherry fluorescent signal for round and mCherry-positive cells was calculated. GFP expression was normalized to mCherry signal and drug treatments were compared to DMSO controls.

BRD4 [5] = molecular target: T3, BRD4 (Homo sapiens, UniProt O60885); assay: Washout experiment, Western blot of BRD4 degradation in K562 cells; type: cell-based; set-up: an 11 amino acid peptide knock-in tag to a protein-of-interest using CRISPR insertion; endogenous in cells; settings: K562, 1 μM; for BRD4 degradation after washout compared to no washout (in words): 4 h treatment, 20 h compound-free vs 24 h no washout
Procedure: This experiment involves cell treatment and incubation with a ‘covalent’ compound, followed by a wash-step where the cells are washed and resuspended in compound-free cell media.
Cells were washed with PBS and lysed in RIPA lysis buffer (Thermo Fisher Scientific) with Halt Protease Inhibitor Cocktail (Thermo Fisher Scientific) and Benzonase (Sigma-Aldrich) for 20 min on ice. […] Membranes were blocked in Intercept (PBS) Blocking Buffer (LI-COR Biosciences) and incubated with primary antibodies overnight at 4 °C. The membranes were then washed in Tris-buffered saline with Tween-20 (TBS-T), incubated for 1 h with secondary IRDye-conjugated antibodies (LI-COR Biosciences) and washed three times in TBS-T for 5 min before near-infrared western blot detection on an Odyssey Imaging System (LI-COR Biosciences).

BRD4BD2 [6] = molecular target: T1, BRD4BD2; assay: BRD4BD2-eGFP and mCherry flow reporter degradation assay, DCAF16 KO K562 cells
Description: In order to investigate the degradation of BRD4 by GNE011 and related analogs, we used a fluorescent stability reporter assay reported previously (Fig. 2A) [17]. This assay involves the co-expression of mCherry with BRD4BD1/2 fused to an enhanced green fluorescent protein (eGFP) tag, and the subsequent fluorescence measurement of BRD4BD1/2-eGFP normalized to mCherry as a readout for BRD4BD1/2 degradation. It allows for a quantitative, rapid, and facile screening of several MGDs, in a dose-and time-dependent manner. […] Thus, the BRD4BD2 stability system was used to test all subsequent GNE011 analogs in wild type and DCAF16−/− cells.
Lentivirus containing sgRNA was transduced to 2 × 10^6 of K562-Cas9 cells at 10% volume ratio by spin infection. FACS sorting was performed to enrich BFP+ cells one week after infection. […] Clonal sgDCAF16-expressing K562-Cas9 cells were isolated after one month of expansion, and the genomic sequences were validated via deep sequencing of PCR amplicons targeting sgDCAF16 cutting sites (MGH CCIB DNA Core Service).
as §5

BRD4 [7] = molecular target: T3, BRD4; assay: Western blot of BRD4 degradation, wild-type K562 cells; type: cell-based; set-up: an 11 amino acid peptide knock-in tag to a protein-of-interest using CRISPR insertion; endogenous in cells; settings: wild-type K562, 1 μM, 16 h
Procedure: (§1) Western blotting was used to determine the degradation potencies of the covalent BRD4 degraders.
(§2) Cells were washed with PBS and lysed in RIPA lysis buffer (Thermo Fisher Scientific) with Halt Protease Inhibitor Cocktail (Thermo Fisher Scientific) and Benzonase (Sigma-Aldrich) for 20 min on ice. The insoluble fraction was removed by centrifugation, the protein concentration was quantified using a BCA protein assay kit (Thermo Fisher Scientific), and an equal amount of lysate was run on SDS–PAGE 4–12% Bis–Tris Protein Gels (Thermo Fisher Scientific) and then transferred to nitrocellulose membrane with a XCell II Blot Module Wet Tank Transfer System (Thermo Fisher Scientific). Membranes were blocked in Intercept (PBS) Blocking Buffer (LI-COR Biosciences) and incubated with primary antibodies overnight at 4 °C. The membranes were then washed in Tris-buffered saline with Tween-20 (TBS-T), incubated for 1 h with secondary IRDye-conjugated antibodies (LI-COR Biosciences) and washed three times in TBS-T for 5 min before near-infrared western blot detection on an Odyssey Imaging System (LI-COR Biosciences).

BRD4 [8] = molecular target: T3, BRD4; assay: Western blot of BRD4 degradation, DCAF16 KO K562 cells; type: cell-based; set-up: an 11 amino acid peptide knock-in tag to a protein-of-interest using CRISPR insertion; endogenous in cells; settings: DCAF16 KO K562, 1 μM, 16 h
Procedure: as §1, §2

BRD4 [9] = molecular target: T3, BRD4; assay: BRD4-HiBiT assay, WT JURKAT cells; type: cell-based; set-up: an 11 amino acid peptide knock-in tag to a protein-of-interest using CRISPR insertion; endogenous in cells; host or cells: JURKAT, HiBiT-edited (wild type or DCAF16 knockout); settings: 6 h
Procedure: (§3) Thereafter, we sought to characterize the BRD4 cellular degradation potencies in a dose-dependent manner at a shorter time point to minimize secondary effects. This was performed using the bioluminescent HiBiT-BRD4 assay, which consists of an 11 amino acid peptide knock-in tag to a protein-of-interest using CRISPR insertion. A complementary polypeptide (LgBiT) detects and interacts with all HiBiT tagged proteins, thereby reconstituting a luminescent NanoBiT enzyme, that can be quantified by its bioluminescence. WT and DCAF16 KO JURKAT cell lines expressing the BRD4-HiBiT system were generated to quantify dose-dependent BRD4 degradation after 6 h incubation (Fig. 4C).
(§4) After 6 h, the plates were subjected to Nano-Glo HiBiT Lytic detection system (Promega, #N3040) as described in manufacturer's manual. The assays were performed in biological triplicate. DC50 values were determined using a non-linear regression curve fit in GraphPad PRISM 9.5.1.

BRD4 [10] = molecular target: T3, BRD4; assay: BRD4-HiBiT assay, DCAF16 KO JURKAT cells; type: cell-based; set-up: an 11 amino acid peptide knock-in tag to a protein-of-interest using CRISPR insertion; endogenous in cells; host or cells: JURKAT, HiBiT-edited (wild type or DCAF16 knockout); settings: 6 h
Procedure: as §3, §4

T2 sequence (Q9NXF7 whole entry, other chains not shown): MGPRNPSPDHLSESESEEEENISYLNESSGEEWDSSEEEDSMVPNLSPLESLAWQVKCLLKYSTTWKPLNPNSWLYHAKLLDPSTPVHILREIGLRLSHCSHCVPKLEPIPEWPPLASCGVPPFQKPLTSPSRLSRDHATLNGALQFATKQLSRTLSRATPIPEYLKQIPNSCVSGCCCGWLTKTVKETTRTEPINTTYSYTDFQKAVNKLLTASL

Structure (SMILES) | IC50 (BRD4BD1) [nM] | IC50 (BRD4BD2 [1]) [nM] | TR-FRETmax (520 nm/490 nm ratio) [2] | BRD4BD2-DCAF16 ternary complex formation / DCAF16 recruitment (in words) ([2]; time-dependent TR-FRET) | half-life (glutathione) [h] | half-life [3] [h] | DCAF16 dependent BRD4BD2 degradation (in words) (BRD4BD2 [4]; K562 cells, 16 h incubation) | BRD4 degradation without washout (in words) (BRD4 [5]; 24 h no washout) | incubation time of saturation / maximum TR-FRET signal [2] [h] | increase in degradation potency in comparison to GNE011 (BRD4BD2 [4]; K562 cells) | Dmax (BRD4BD2 [4]) [%] | DC50 (BRD4BD2 [4]; K562 cells, 16 h incubation) [nM] | BRD4BD2 degradation activity in DCAF16 knockout cells (in words) (BRD4BD2 [6]) | BRD4 degradation by Western blot (in words) (BRD4 [7]) | BRD4 degradation by Western blot in DCAF16 KO (in words) (BRD4 [8]) | BRD4 degradation after washout compared to no washout (in words) (BRD4 [5]) | BRD4 degradation (in words) (BRD4 [9]) | BRD4 degradation (BRD4 [9]; at <100 nM) [%] | BRD4 degradation in DCAF16 KO (in words) (BRD4 [10]) | BRD4 degradation (BRD4 [9]) [%]
Cc1sc2c(c1C)C(c1ccc(/C=C/C(N)=O)cc1)=N[C@@H](CC(=O)OC(C)(C)C)c1nnc(C)n1-2 [MMH271, tert-butyl (S,E)-2-(4-(4-(3-amino-3-oxoprop-1-en-1-yl)phenyl)-2,3,9-trimethyl-6H-thieno[3,2-f][1,2,4]triazolo[4,3-a][1,4]diazepin-6-yl)acetate] | 8.08 | 7.58 | 0.14 | no significant DCAF16 recruitment | > 12.5 | > 12.5 | almost no DCAF16 dependent BRD4BD2 degradation | showed BRD4 degradation in 24 h no washout experiments | – | – | – | – | – | – | – | – | – | – | – | –
C=CS(=O)(=O)Nc1ccc(C2=N[C@@H](CC(=O)OC(C)(C)C)c3nnc(C)n3-c3sc(C)c(C)c32)cc1 [MMH2, tert-butyl (S)-2-(2,3,9-trimethyl-4-(4-(vinylsulfonamido)phenyl)-6H-thieno[3,2-f][1,2,4]triazolo[4,3-a][1,4]diazepin-6-yl)acetate] | 48.6 | – | 3.75 | – | > 12.5 | – | – | – | 1 | ~1000 fold | 95 | 1 | almost entirely ablated | nearly complete BRD4 degradation | completely rescued by DCAF16 KO | no or minimal difference | noticeable BRD4 degradation | > 90 | completely rescued by DCAF16 KO | –
C=CC(=O)Nc1ccc(C2=N[C@@H](CC(=O)OC(C)(C)C)c3nnc(C)n3-c3sc(C)c(C)c32)cc1 [MMH1, tert-butyl (S)-2-(4-(4-acrylamidophenyl)-2,3,9-trimethyl-6H-thieno[3,2-f][1,2,4]triazolo[4,3-a][1,4]diazepin-6-yl)acetate] | 17.7 | 15.5 | 1.78 | – | 9.53 | – | – | – | 24 | ~ 3333 fold | 95 | 0.3 | almost entirely ablated | nearly complete BRD4 degradation | completely rescued by DCAF16 KO | no or minimal difference | noticeable BRD4 degradation | > 90 | completely rescued by DCAF16 KO | –
Cc1sc2c(c1C)C(c1ccc(NC(=O)CCl)cc1)=N[C@@H](CC(=O)OC(C)(C)C)c1nnc(C)n1-2 [MMH249, tert-butyl (S)-2-(4-(4-(2-chloroacetamido)phenyl)-2,3,9-trimethyl-6H-thieno[3,2-f][1,2,4]triazolo[4,3-a][1,4]diazepin-6-yl)acetate] | 3.98 | 2.59 | 0.77 | – | 8.85 | – | – | – | 24 | – | 56 | 8 | almost entirely ablated | moderate degradation | – | no or minimal difference | noticeable BRD4 degradation | – | completely rescued by DCAF16 KO | < 60
